This is an account of results in ChEMBL document CHEMBL1126499, “Inhibition of 2,3-oxidosqualene cyclase by N-alkylpiperidines” (Bioorg Med Chem Lett, 1993).

One experiment concerns HepG2. Put plainly: Inhibitory concentration against cholesterol biosynthesis in HepG2 cells. As to conditions: Homo sapiens; call rule not given here.
The next experiment has as its target T1, Lanosterol synthase (Rattus norvegicus, UniProt P48450).
T1 sequence (P48450 whole entry): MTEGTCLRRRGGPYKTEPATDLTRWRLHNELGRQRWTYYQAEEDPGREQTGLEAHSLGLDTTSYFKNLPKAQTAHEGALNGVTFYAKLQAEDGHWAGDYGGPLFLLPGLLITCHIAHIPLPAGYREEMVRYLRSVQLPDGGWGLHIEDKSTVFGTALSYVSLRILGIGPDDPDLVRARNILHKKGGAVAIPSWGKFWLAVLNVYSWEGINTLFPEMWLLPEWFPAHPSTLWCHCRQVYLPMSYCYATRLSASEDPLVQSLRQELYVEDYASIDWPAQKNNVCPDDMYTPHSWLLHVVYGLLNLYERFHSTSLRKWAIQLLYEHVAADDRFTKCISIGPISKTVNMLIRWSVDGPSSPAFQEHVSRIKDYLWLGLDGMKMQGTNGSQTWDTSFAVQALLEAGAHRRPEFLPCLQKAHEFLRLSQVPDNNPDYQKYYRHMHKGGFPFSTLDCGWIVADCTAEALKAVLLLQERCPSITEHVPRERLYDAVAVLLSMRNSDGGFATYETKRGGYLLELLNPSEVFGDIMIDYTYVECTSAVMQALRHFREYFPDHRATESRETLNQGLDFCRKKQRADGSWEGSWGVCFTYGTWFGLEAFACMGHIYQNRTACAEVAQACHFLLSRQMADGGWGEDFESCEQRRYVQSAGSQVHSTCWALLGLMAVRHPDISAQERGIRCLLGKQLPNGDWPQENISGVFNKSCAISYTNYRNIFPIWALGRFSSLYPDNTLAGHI
Nature of the experiment: Inhibitory concentration against purified rat liver Oxidosqualene cyclase (OSC); NI means no inhibition.

With `CCCCCCCCCCCC(=O)N1CC[C@H]2[C@H](C)[C@@H](O)CC[C@]2(C)C1`, it took 0.7 nM to reach half-maximal inhibition with HepG2 (IC50).

Regarding `CCCCCCCCCCCCC(=O)N1CCC(C(C)CO)CC1` (stereo not given), in the experiment with HepG2, half-maximal inhibition (IC50) was put at 12 nM.

Take `C[C@@H]1[C@@H](O)CC[C@]2(C)CN(Cc3ccccc3)CC[C@@H]12`: the IC50 – broadly, the concentration at which inhibition is half-maximal – against Lanosterol synthase is “Not Active”.

As for `CCCCCCCCCCCCN1CCC(C(C)CO)CC1` (stereo not given), half-maximal inhibition in the experiment on HepG2 (IC50) was put at 40 nM.

`CC(C)CCCC(C)CCCC(C)N1CCCCC1` (stereo not given) yielded an IC50 in the experiment with HepG2 of 30000 nM.
